According to publication PMC10740270, “In-silico guided chemical exploration of KDM4A fragments hits” (Clinical Epigenetics, 2023):
“And” between values parts separate entries of the source, which are not always exact repeats. Equal entries are not always repeated.

B1: KDM4A (Homo sapiens) (protein)
chain: MASESETLNPSARIMTFYPTMEEFRNFSRYIAYIESQGAHRAGLAKVVPPKEWKPRASYDDIDDLVIPAPIQQLVTGQSGLFTQYNIQKKAMTVREFRKIANSDKYCTPRYSEFEELERKYWKNLTFNPPIYGADVNGTLYEKHVDEWNIGRLRTILDLVEKESGITIEGVNTPYLYFGMWKTSFAWHTEDMDLYSINYLHFGEPKSWYSVPPEHGKRLERLAKGFFPGSAQSCEAFLRHKMTLISPLMLKKYGIPFDKVTQEAGEFMITFPYGYHAGFNHGFNCAESTNFATRRWIEYGKQAVLCSCRKDMVKISMDVFVRKFQPERYKLWKAGKDNTVIDHTLPTPEA

Experiments:
KDM4A [1] = biological target: T1, KDM4A (Homo sapiens, UniProt O75164); test: Bio-layer interferometry (BLI) binding to biotinylated KDM4A; conditions: for Kd: BLI, 1:1 Langmuir global fit, 25 °C, 5% DMSO; for LE: ligand efficiency score; for LE / LLE: method of ref 58; for LLE: lipophilic ligand efficiency score
T1 construct: encoding human KDM4A residues 1–350 with a GST-6xHis tag at the N-terminal; GST-6xHis (followed by TEV cleavage site) (N, cleaved yes); made in house; host or cells: T7 Express E. coli
T1 sequence (O75164 1-350): B1 chain
From the text: (§1) Bio-layer interferometry (BLI) was then used to determine the equilibrium dissociation constant (KD) for the binding event. QC6352 inhibitor [52] and N-[(2-Chloro-6-fluorophenyl)methyl]-2-(2,5-dioxo-4-phenyl-4-propylimidazolidin-1-yl)-N-methylacetamide were used as positive and negative control, respectively. […] Binding was also confirmed by Saturation-Transfer Difference (STD) NMR experiments (Additional file 1: Fig. S5).
Bio-layer Interferometry experiments Bio-layer Interferometry was employed to determine the equilibrium dissociation constant (KD) for compounds binding to KDM4A, using a BLI Octet RED96e instrument (Fortebio–Sartorius). Biotinylated KDM4A samples (20 μg/ml) in 10 mM Hepes, pH = 7.5, 150 mM NaCl, 0.5 mM TCEP, 5% glycerol, and 5% DMSO, were loaded onto super streptavidin (SSA) coated biosensors for at least 500 s to saturate the sensors, and then quenched with 10 µg/ml of biocytin for 60 s. Loaded SSA biosensors were then equilibrated in buffer for at least 600 s prior to baseline collection. Association was followed for at least 120 s or until plateau was reached, in a concentration range of 15.6–500 nM for the positive control, and of 3–200 µM for the negative control, and compound 1 and its analogues. Dissociation was followed for at least 300 s. All steps were performed at 25 °C with an agitation speed of 1000 rpm. QC6352 inhibitor [52] and N-[(2-chloro-6-fluorophenyl)methyl]-2-(2,5-dioxo-4-phenyl-4-propylimidazolidin-1-yl)-N-methylacetamide were used as positive and negative control, respectively. Two or three independent experiments were performed for each tested compound.
KD values were estimated by globally fitting the BLI response intensity (nm) as a function of compound concentration (μM) with the Octet Data Analysis Software, using a 1:1 Langmuir binding model.
Biotinylated KDM4A was obtained as follows. 17 nmol of purified recombinant KDM4A was mixed with 17 nmol of NHS-PEG4-Biotin (ThermoFisher Scientific 21,330) in 10 mM Hepes, pH = 7.5, 150 mM NaCl, 0.5 mM TCEP, 5% Glycerol. The solution was incubated at 4 °C for 2 h. Excess biotin was removed by 2 ml Zeba™ Spin Desalting Columns (7 K MWCO).

KDM4A [2] = biological target: T1, KDM4A; test: STD-NMR binding experiment; conditions: 1:50 receptor-to-ligand ratio, 7.5 µM KDM4A
Description: as §1
STD-NMR experiments STD-NMR spectra were recorded at 800 MHz on Bruker spectrometer and 298 K in 20 mM NaPh, pH = 7.5, 150 mM NaCl, 0.5 mM TCEP, 8% D2O, using 7.5 µM of KDM4A and 20- or 50-fold excess of each compound. A series of Gaussian-shaped pulses of 0.025 s each was employed with a total saturation time for the protein envelope of 2 s. Off-resonance frequency of d = − 40 ppm and on-resonance frequency of d = 0.07 ppm (protein aliphatic signals region) were applied. Spectra were processed and analyzed using Bruker TopSpin software.
Suppl. Fig. S5: STD-NMR analysis of compound 1. […] (i) The 1D NMR reference spectrum of compound 1. (ii) The STD-NMR spectrum of compound 1 in the presence of KDM4A. The NMR spectrum was recorded at 1:50 receptor-to-ligand ratio.

KDM4A [3] = biological target: T1, KDM4A; test: Enzymatic HTRF-based assay, inhibition of H3K9me3 peptide demethylation; format: biochemical; conditions: for IC50: HTRF, H3K9me3 peptide, 0.5 µM 2-OG, 400 nM KDM4A, ± standard error of fit; for inhibition at 50 µM: read-out: Inhibition at 50 μM
Description: The plasmid pGEX4T2-JMJD2A encoding human KDM4A residues 1–350 with a GST-6xHis tag at the N-terminal, followed by Tobacco Etch Virus (TEV) cleavage site, was used for protein expression. The plasmid was used to transform T7 Express E.coli competent cells. Cells were grown in LB media supplemented with ampicillin (100 µg/mL) at 37 °C until the OD600 reached a value around 0.4. Flasks were then cooled down and, after induction by 0.2 mM ITPG at OD600 = 0.8, bacteria were grown at 18 °C for 20 h. After centrifugation at 8000 g (20 min at 4 °C) the obtained pellets were suspended in lysis buffer (20 mM TRIS pH = 8, 0.3 M NaCl, 10 mM imidazole, 5% glycerol, 1 mM DTT, 10 µg/mL DNAse, 0.5 mg/mL lysozyme, 0.5 mM PMSF, 2 cOmplete™ EDTA-free Protease Inhibitor Cocktail, 5 mM MgCl2) and incubated at 25 °C for 1 h. Sonication (1 s ON and 1 s OFF) on ice for 7 min at 48% amplitude was performed. 0.1% Triton X-100 was added and the lysate was incubated on ice for 15 min in agitation. Soluble and insoluble phase were separated by centrifugation at 15,000 rpm, 4 °C for 30 min. Soluble phase was filtered using a 0.45 um syringe filter and directly loaded in 2 × 5 mL His-trap FF Crude column (GE Healthcare) previously equilibrated with loading buffer (20 mM TRIS, pH = 8, 0.3 M NaCl, 1 mM DTT, 10 mM imidazole, 5% glycerol). A linear gradient elution by 500 mM imidazole was done to elute bound KDM4A. In order to remove the GST-6xHis tag and imidazole excess, the eluted KDM4A was incubated with His-tagged TEV-protease (molar ratio 20:1) and dialyzed against 20 mM TRIS, pH = pH 7.5, 0.3 M NaCl, 1 mM DTT overnight at 4 °C. Tag free KDM4A was recovered reloading the dialyzed sample onto a His-trap column and collecting the flow-through. Size exclusion chromatography was used as final polishing step using a Superdex 200 grade 16/600 pg column (GE Healthcare) pre-equilibrated with 10 mM Hepes, pH = 7.5, 150 mM NaCl, 5% glycerol, 0.5 mM TCEP. Fractions containing KDM4A were pooled and concentrated to 50–100 µM, flash frozen in liquid nitrogen, and stored at − 80 °C. Protein concentration was measured by using the predicted molar extinction coefficient (ε280 = 73,800 M^−1 cm^−1), and the purity verified by SDS-PAGE resulted > 95%.
Enzymatic HTRF-based assay was run in two steps: enzymatic reaction and detection. Optimal conditions for both steps were determined by considering: plate format, time and temperature of incubation, substrate and DMSO concentrations.
Dimethyl sulfoxide (DMSO, Sigma-Aldrich D58791) final concentration was 1%. The reaction mixture was incubated for 2 h at 20 °C in ½ area 96 well plates (ref. 6002290 m, Perkin Elmer).
For the detection step, 40 μl of HTRF reagents, H3K9 me2-Eu(K) Ab (Cisbio Bioassays, 61KB2KAE) and Streptavidin XL-665 (Cisbio Bioassays, 610SAXLA), prepared in detection buffer following manufacturer’s instruction (Cisbio Assays, 62SDBRDD), were added to each well and incubated o/n at 20 °C. Fluorescence was measured with a TECAN Spark reader (Männedorf, Switzerland), by setting excitation wavelength at 320 nm and emission wavelength at 620 and 665 nm.
Automation was performed using Bravo (Agilent) liquid handling system. Validation of the assay was performed following NIH guidelines. 2,4-pyridinedicarboxylic acid monohydrate (2,4-PDCA, Sigma Aldrich P63395) was used as positive control at Imax 10 µM, and Z’ was determined on 9 independent experiments always giving a value > 0.5. The following reference compounds were used as internal controls in the screening plates: 2,4-Pyridinedicarboxylic Acid, 8-hydroxyquinoline-5-carboxylic acid, pyrido[3,4-d]pyrimidin-4(3H)-one, 3-(ethylsulfonyl)-N-(4-(pyridin-2-yl)thiazol-2-yl)benzamide, 3-(ethylsulfonyl)-N-(4-(pyridin-2-yl)thiazol-2-yl)benzamide, 3-(methylsulfonyl)-N-(4-(pyridin-2-yl)thiazol-2-yl)benzamide.

[4] = substrate: O=C(O)CCC(=O)C(=O)O; test: purified protein, by the assay type; conditions: other: 2-OG titrated 50 µM to 0.01 µM, Michaelis-Menten plot

| Molecule | Kd (KDM4A [1]) [µM] | LE (KDM4A [1]) | LLE (KDM4A [1]) | Binding to KDM4A by STD-NMR (KDM4A [2]) | IC50 (KDM4A [3]) | inhibition at 50 µM (KDM4A [3]) [%] | Km [4] [µM] |
| --- | --- | --- | --- | --- | --- | --- | --- |
| CNC(=O)c1cc(C(=O)O)ccn1 [Compound 1, 2-(methylcarbamoyl)isonicotinic acid] | 15 ± 0.16 | 0.51 | 4.59 | detected compound 1 binding to KDM4A | 7.09 µM and 7.1 µM |  |  |
| COC(=O)c1ccnc(C(=O)NCc2ccccc2)c1 [Compound 5a, Methyl 2-(benzylcarbamoyl)isonicotinate] |  |  |  |  |  | < 50 |  |
| COC(=O)c1ccnc(C(=O)NCc2nc3ccccc3n2C)c1 [Compound 5d, Methyl 2-(((1-methyl-1H-benzo[d]imidazole-2-yl)methyl)carbamoyl)isonicotinate] | 55 ± 2 | 0.24 | 1.88 |  |  | < 50 |  |
| O=C(O)c1ccnc(C(=O)NCc2ccccc2)c1 [Compound 6a, 2-(benzylcarbamoyl)isonicotinic acid] | 45 ± 1 | 0.33 | 2.49 |  |  | < 50 |  |
| O=C(O)c1ccnc(C(=O)NCc2cnco2)c1 [Compound 6b, 2-((Oxazol-5-ylmethyl)carbamoyl)isonicotinic acid] | 9.5 ± 0.08 | 0.39 | 4.50 |  | 25.1 µM and 25 µM | > 90 |  |
| CCCNC(=O)c1cc(C(=O)O)ccn1 [Compound 6c, 2-(Propylcarbamoyl)isonicotinic acid] | 10.7 ± 0.2 | 0.48 | 4.18 |  | 41.6 µM | > 90 |  |
| B1 |  |  |  |  |  |  | 0.73 ± 0.16 |
